Results published in patent US20240150423A1, “GLP-1 ANALOGUE-MODIFIED DIMERS WITH DIFFERENT CONFIGURATIONS, PREPARATION METHOD THEREOF, AND APPLICATION THEREOF IN TREATMENT OF TYPE II DIABETES” (Nanjing Finepeptide Biopharmaceutical Co.,Ltd, priority 2019, published 2024).
Non-standard residues stand in square brackets, D forms with d. No end group written: not given here. βAib = beta-Aib residue; Aib = CC(C)(N)C(=O)O

Test system: Normal Kunming (KM) mice
Assay: multiple OGTT (mOGTT): hypoglycemic duration after a single administration
Type: in vivo
Details: monomeric peptides, single injection at the same dose (1.126 nmol), subcutaneous
Method in brief: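 Tail blood glucose was followed by meter in normal KM mice after one dosing and glucose gavage, at 0, 10, 20, 40, 60 and 120 min. Measurement stopped when the treated mean rose above the NaCl group twice; the period before that is the effective duration.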

Compared with “His-aAib-Glu-Gly-Thr-Phe-Thr-Ser-Asp-Val-Ser-Cys--Tyr-Leu-Glu-Gly-Gln-Ala-Ala-Lys[N-ϵ-(N-α-oleoyl-L-γ-glutamyl)]-Glu-Phe-Ile-Ala-Trp-Leu-Val-Arg-Gly-Arg-Gly-NH2 (HXEGTFTSDVSCYLEGQAAXEFIAWLVRGRG; Aib; oleoyl-gamma-Glu on Lys; C-terminal amide; Sequence is synthesized; (2)..(2) Xaa is aAib; (20)..(20) Xaa is 26Lys[N-e-(N-a-oleoyl-L-g-glutamyl)]; (31)..(31) N-terminal) [G6 series 47]”, “His-aAib-Glu-Gly-Thr-Phe-Thr-Ser-Asp-Val-Ser-Cys-Tyr-Leu-Glu-Gly-Gln-Ala-Ala-Lys-Glu-Phe-Ile-Ala-Trp-Leu-Val-Arg-aAib-Arg-NH2 (H[Aib]EGTFTSDVSCYLEGQAAKEFIAWLVR[Aib]R-NH2; also: disulfide-linked homodimer via Cys) [G7 series 51]” is lower in “Hypoglycemic” value: 8 days for the first, 3 days for the second.

Going from “His-aAib-Glu-Gly-Thr-Phe-Thr-Ser-Asp-Val-Ser-Cys-Tyr-Leu-Glu-Gly-Gln-Ala-Ala-Lys-Glu-Phe-Ile-Ala-Trp-Leu-Val-Arg-aAib-Arg-OH (H[Aib]EGTFTSDVSCYLEGQAAKEFIAWLVR[Aib]R-OH; also: disulfide-linked homodimer via Cys) [G7 series 52]” to “His-aAib-Glu-Gly-Thr-Phe-Thr-Ser-Asp-Val-Ser-Cys-Tyr-Leu-Glu-Gly-Gln-Ala-Ala-Lys-Glu-Phe-Ile-Ala-Trp-Leu-Val-Lys-aAib-Arg-NH2 (H[Aib]EGTFTSDVSCYLEGQAAKEFIAWLVK[Aib]R-NH2; also: disulfide-linked homodimer via Cys) [G7 series 53]”, the “Hypoglycemic” value rises from 1 days to 3 days.

“His-aAib-Glu-Gly-Thr-Phe-Thr-Ser-Asp-Val-Ser-Cys-Tyr-Leu-Glu-Gly-Gln-Ala-Ala-Lys[N-ϵ-(N-α-Palmitoyl)]-Glu-Phe-Ile-Ala-Trp-Leu-Val-Arg-Gly-Arg-Gly-NH2 (HXEGTFTSDVSCYLEGQAAXEFIAWLVRGRG; not fully specified; Aib; palmitoyl on Lys side chain; C-terminal amide; Sequence is synthesized; (2)..(2) Xaa is aAib; (20)..(20) Xaa is 26Lys[N-e-(N-a-palmitoyl-L-g-glutamyl)]; (31)..(31) N-terminal) [G4 series 37]” and “His-aAib-Glu-Gly-Thr-Phe-Thr-Ser-Asp-Val-Ser-Cys-Tyr-Leu-Glu-Gly-Gln-Ala-Ala-Lys[N-ϵ-(N-α-Palmitoyl-L-γ-glutamyl)]-Glu-Phe-Ile-Ala-Trp-Leu-Val-Arg-Gly-Arg-Gly-NH2 (HXEGTFTSDVSCYLEGQAAXEFIAWLVRGRG; Aib; palmitoyl-gamma-Glu on Lys; C-terminal amide; Sequence is synthesized; (2)..(2) Xaa is aAib; (20)..(20) Xaa is 26Lys[N-e-(N-a-palmitoyl-L-g-glutamyl)]; (31)..(31) N-terminal) [G6 series 48]” are the same in “Hypoglycemic” value: 7 days for the first, 7 days for the second.

Compared with “His-aAib-Glu-Gly-Thr-Phe-Thr-Ser-Asp-Val-Ser-Cys-Tyr-Leu-Glu-Gly-Gln-Ala-Ala-Lys[N-ϵ-(N-α-Palmitoyl-L-γ-glutamyl)]-Glu-Phe-Ile-Ala-Trp-Leu-Val-Arg-Gly-Arg-Gly-OH (HXEGTFTSDVSCYLEGQAAXEFIAWLVRGRG; Aib; palmitoyl-gamma-Glu on Lys; C-terminal acid; Sequence is synthesized; (2)..(2) Xaa is aAib; (20)..(20) Xaa 26Lys[N-e-(N-a-palmitoyl-L-g-glutamyl)]; (31)..(31) C-terminal) [G6 series 45]”, “His-aAib-Glu-Gly-Thr-Phe-Thr-Ser-Asp-Val-Ser-Cys-Tyr-Leu-Glu-Gly-Gln-Ala-Ala-Lys[N-ϵ-(N-α-Palmitoyl-L-γ-glutamyl)]-Glu-Phe-Ile-Ala-Trp-Leu-Val-Lys[N-ϵ-(N-α-Palmitoyl-L-γ-glutamyl)]-Gly-Arg-Gly-NH2 (HXEGTFTSDVSCYLEGQAAXEFIAWLVXGRG; Aib; two palmitoyl-gamma-Glu on Lys; C-terminal amide; Sequence is synthesized; (2)..(2) Xaa is aAib; (20)..(20) Xaa is 26Lys[N-e-(N-a-palmitoyl-L-g-glutamyl)]; (28)..(28) Xaa is 26Lys[N-e-(N-a-palmitoyl-L-g-glutamyl)]; (31)..(31) N-terminal) [G5 series 42]” is lower in “Hypoglycemic” value: 4 days for the first, 3 days for the second.

Compared with “His-aAib-Glu-Gly-Thr-Phe-Thr-Ser-Asp-Val-Ser-Cys-Tyr-Leu-Glu-Gly-Gln-Ala-Ala-Lys[N-ϵ-(N-α-oleoyl)]-Glu-Phe-Ile-Ala-Trp-Leu-Val-Arg-Gly-Arg-Gly-NH2 (HXEGTFTSDVSCYLEGQAAXEFIAWLVRGRG; not fully specified; Aib; oleoyl on Lys side chain; C-terminal amide; Sequence is synthesized; (2)..(2) Xaa is aAib; (20)..(20) Xaa is 26Lys[N-e-(N-a-oleoyl-L-g-glutamyl)]; (31)..(31) N-terminal) [G4 series 36]”, “His-aAib-Glu-Gly-Thr-Phe-Thr-Ser-Asp-Val-Ser-Cys-Tyr-Leu-Glu-Gly-Gln-Ala-Ala-Lys[N-ϵ-(N-α-oleoyl-L-γ-glutamyl)]-Glu-Phe-Ile-Ala-Trp-Leu-Val-Arg-Gly-Arg-Gly-OH (HXEGTFTSDVSCYLEGQAAXEFIAWLVRGRG; Aib; oleoyl-gamma-Glu on Lys; C-terminal acid; Sequence is synthesized; (2)..(2) Xaa is aAib; (20)..(20) Xaa is LyO; (31)..(31) C-terminal) [G6 series 46]” is lower in “Hypoglycemic” value: 8 days for the first, 5 days for the second.

First: His-βAib-Glu-Gly-Thr-Phe-Thr-Cys-Asp-Val-Ser-Ser-Tyr-Leu-Glu-Gly-Gln-Ala-Ala-Lys-Glu-Phe-Ile-Ala-Trp-Leu-Val-Arg-βAib-Arg-NH2 (H[βAib]EGTFTCDVSSYLEGQAAKEFIAWLVR[βAib]R-NH2; also: disulfide-linked homodimer via Cys) [G8 series 67]
Second: His-βAib-Glu-Gly-Thr-Phe-Thr-Cys-Asp-Val-Ser-Ser-Tyr-Leu-Glu-Gly-Gln-Ala-Ala-Lys[N-ϵ-(N-α-oleoyl-L-γ-glutamyl)]-Glu-Phe-Ile-Ala-Trp-Leu-Val-Arg-Gly-Arg-Gly-NH2 (HXEGTFTCDVSSYLEGQAAXEFIAWLVRGRG; beta-Aib; oleoyl-gamma-Glu on Lys; C-terminal amide; Sequence is synthesized; (2)..(2) Xaa is bAib; (20)..(20) Xaa is 26Lys[N-e-(N-a-oleoyl-L-g-glutamyl)]; (31)..(31) N-terminal) [G8 series 66]
The “Hypoglycemic” value of the first is lower: 2 days for the first, 3 days for the second.

“His-βAib-Glu-Gly-Thr-Phe-Thr-Ser-Asp-Val-Cys-Ser-Tyr-Leu-Glu-Gly-Gln-Ala-Ala-Lys-Glu-Phe-Ile-Ala-Trp-Leu-Val-Arg-βAib-Arg-NH2 (H[βAib]EGTFTSDVCSYLEGQAAKEFIAWLVR[βAib]R-NH2; also: disulfide-linked homodimer via Cys) [G2 series 16]” and “His-βAib-Glu-Gly-Thr-Phe-Thr-Ser-Asp-Val-Cys-Ser-Tyr-Leu-Glu-Gly-Gln-Ala-Ala-Lys-Glu-Phe-Ile-Ala-Trp-Leu-Val-Lys-βAib-Arg-NH2 (H[βAib]EGTFTSDVCSYLEGQAAKEFIAWLVK[βAib]R-NH2; also: disulfide-linked homodimer via Cys) [G2 series 17]” are the same in “Hypoglycemic” value: 3 days for the first, 3 days for the second.

First: His-βAib-Glu-Gly-Thr-Phe-Thr-Ser-Asp-Val-Cys-Ser-Tyr-Leu-Glu-Gly-Gln-Ala-Ala-Lys[N-ϵ-(N-α-oleoyl)]-Glu-Phe-Ile-Ala-Trp-Leu-Val-Arg-Gly-Arg-Gly-NH2 (HXEGTFTSDVCSYLEGQAAXEFIAWLVRGRG; βAib; oleoyl on Lys; C-terminal amide; Sequence is synthesized; (2)..(2) Xaa is bAib; (20)..(20) Xaa is 26Lys[N-e-(N-a-oleoyl-L-g-glutamyl)]; (31)..(31) N-terminal) [G4 series 30]
Second: His-βAib-Glu-Gly-Thr-Phe-Thr-Ser-Asp-Val-Cys-Ser-Tyr-Leu-Glu-Gly-Gln-Ala-Ala-Lys[N-ϵ-(N-α-oleoyl-L-γ-glutamyl)]-Glu-Phe-Ile-Ala-Trp-Leu-Val-Arg-Gly-Arg-Gly-NH2 (HXEGTFTSDVCSYLEGQAAXEFIAWLVRGRG; βAib; oleoyl-γ-glutamyl on Lys; C-terminal amide; Sequence is synthesized; (2)..(2) Xaa is bAib; (20)..(20) Xaa is 26Lys[N-e-(N-a-oleoyl-L-g-glutamyl)]; (31)..(31) N-terminal) [G2 series 15]
The “Hypoglycemic” value of the first is higher: 6 days for the first, 5 days for the second.

Compared with “His-βAib-Glu-Gly-Thr-Phe-Thr-Ser-Asp-Val-Ser-Cys-Tyr-Leu-Glu-Gly-Gln-Ala-Ala-Lys-Glu-Phe-Ile-Ala-Trp-Leu-Val-Arg-βAib-Arg-NH2 (H[βAib]EGTFTSDVSCYLEGQAAKEFIAWLVR[βAib]R-NH2; also: disulfide-linked homodimer via Cys12) [G7 series 54]”, “His-βAib-Glu-Gly-Thr-Phe-Thr-Ser-Asp-Val-Ser-Cys-Tyr-Leu-Glu-Gly-Gln-Ala-Ala-Lys[N-ϵ-(N-α-Palmitoyl-L-γ-glutamyl)]-Glu-Phe-Ile-Ala-Trp-Leu-Val-Lys[N-ϵ-(N-α-Palmitoyl-L-γ-glutamyl)]-Gly-Arg-Gly-NH2 (HXEGTFTSDVSCYLEGQAAXEFIAWLVXGRG; not fully specified; beta-Aib; two palmitoyl-gamma-Glu on Lys; C-terminal amide; Sequence is synthesized; (2)..(2) Xaa is bAib; (20)..(20) Xaa is 26Lys[N-e-(N-a-palmitoyl-L-g-glutamyl)]; (28)..(28) Xaa is 26Lys[N-e-(N-a-palmitoyl-L-g-glutamyl)]; (31)..(31) N-terminal) [G5 series 43]” is higher in “Hypoglycemic” value: 2 days for the first, 3 days for the second.
